The test can be described thus: viability loss in HEK293T cells – cell-based, WST-1 absorbance, serum-free and serum medium, cytotoxicity control for LYPLA1/LYPLA2 inhibitor project, dose response (AID 651991). To be noted: 48 h. For orientation: Formazan colour is commonly taken as a measure of viable cells.

Molecules are shown by their SMILES. The source made the active and inactive calls.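 The calls were made as follows: active = CC50 at or below 10 µM in either panel, but not in both panels; inactive = the rest.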

By CC50 is commonly meant the concentration giving 50% cytotoxicity. On to `COc1ccc(N2CCN(C(=O)c3cc4c(s3)-c3ccccc3S(=O)(=O)C4)CC2)cc1`, for which the CC50 is, setting by setting: (with 10% FCS) > 50 µM (inactive); (without serum) > 50 µM (inactive).

With `O=C(CN1CCN(C(=O)c2ccco2)CC1)Nc1cc(Cl)ccc1Cl`, the CC50 is > 50 µM (inactive) (with 10% FCS) and > 50 µM (inactive) (without serum).

As for `O=C(CN1CCN(C(=O)c2ccco2)CC1)Nc1cc(C(F)(F)F)ccc1Cl`, the CC50 is, setting by setting: (with 10% FCS) > 50 µM (inactive); (without serum) > 50 µM (inactive).

`O=C(c1cc2c(s1)-c1ccccc1S(=O)(=O)C2)N1CCN(c2ccc(Cl)cc2)CC1`: the CC50 (with 10% FCS) was > 50 µM (inactive) and the CC50 (without serum) was > 50 µM (inactive).

The record behind these values is PubChem BioAssay AID651991 (The Scripps Research Institute Molecular Screening Center, 2013).
